Source: patent US12274684B2, “Treatment of vasculopathy with prostacyclin and mesenchymal stem cells” (United Therapeutics Corporation, priority 2013, dated 2025)

Test system: human bone marrow MSC
Assay: RNA content of MSC-derived exosomes by qRT-PCR
Format: cell-based
Conditions: 250 μg/mL
Protocol: After 24 hours of culture, representative images were captured from (+) Tre and (−) Tre cultures. Conditioned media was collected from each replicate, divided into two samples of appropriate volumes, and analyzed separately for: 1) secreted proteins (Myriad RBM InflammationMAP® 1.0) and 2) exosome RNA content. Cells were lysed directly from culture flasks, processed for total RNA isolation, and analyzed for gene expression by microarray (Illumina Human HT12 Expression BeadChip). To characterize the effect of treprostinil on MSC, cells were analyzed by qRT-PCR and microarray to identify changes in gene expression (4). Cell culture supernatant media was assayed for selected inflammatory cytokines by bead-based immunoassays (2). Secreted vesicles were isolated from cell culture supernatant, and assayed for RNA content by qRT-PCR (7). Vesicles were also assayed for size and concentration by tunable resistive pulse sensing, or TRPS (7) (refer to Example 4). Total RNA was extracted from exosomal preparations, and qRT-PCR was performed with the same primer/probe sets used in experiments with the parent cells (refer to FIG. 8). VEGF-A gene transcripts present in MSC-derived exosomes were increased ˜4-fold as a result of treprostinil exposure (FIG. 10).

[1] = 24 h (FIG. 8, lower panel), p<0.05

`CCCCC[C@H](O)CC[C@@H]1[C@H]2Cc3cccc(OCC(=O)O)c3C[C@H]2C[C@H]1O` [treprostinil] was tested, and the “let-7b abundance vs controls” value [1] was “less prevalent”, the “miR-21 abundance vs controls” value [1] was “more abundant” and the “VEGF-A gene transcripts in MSC-derived exosomes, fold increase” value (24 h (FIG. 10)) was about 4 fold. The “miR-21 in MSC-derived exosomes” value (24 h (FIG. 10), p<0.05) was “significantly more abundant” and the “miR-199-3p in MSC-derived exosomes” value (24 h (FIG. 10), p<0.05) was “significantly more abundant”.
